The target of series [1] is T1, NK1R (Homo sapiens, UniProt P25103).
T1 construct: host or cells: HEK293-T
Description: IP accumulation assay, NK1R activation (HEK293-T cells). In kind it is cell-based. To be noted: HEK293-T cells transfected with NK1R, 1 h at 37 °C, mean ± SEM (n = 3). The source says: (§1) pcDNA mammalian expression vectors encoding human NK3R (GenBank accession number: AY462098), NK2R (GenBank accession number: AY322545), NK1R (GenBank accession number: AY462099) and MRGPRX2 (GenBank accession number: NM_054030) were obtained from the Bloomsburg University cDNA Resource Center (www.cdna.org [accessed on 18 October 2018]). The NK1R, NK2R and NK3R vectors included an N-terminal 3xHA epitope tag. The empty vector, pcDNA3.1, was obtained from Thermo Fisher Scientific (Waltham, MA, USA). […] Talnetant was kindly supplied by Dr Mike Trower (NeRRe Therapeutics, Stevenage, UK).
(§2) Modified human embryonic kidney cells (HEK293-T; American Tissue and Cell Culture Collection), which provide a ‘blank’ background (with little/no endogenous tachykinin receptor nor MRGPRX2 expression) and stably express large T-antigen for optimal expression of exogenous proteins, were utilised. […]
(§3) The tachykinin receptors elicit intracellular signalling responses primarily through coupling to, and the activation of, Gαq/11 G proteins. […] These can be isolated using ion exchange chromatography and their radioactivity measured, with the amount of radiolabelled IP generated (i.e., the level of radioactivity measured) being proportional to the signalling activity of the receptor [48]. […]

For series [2] the following is noted: ref [29]; cited from earlier work. An excerpt: In glioblastoma multiforme NK1Rs are believed to be highly expressed on the tumour cells and also within the tumour neovasculature, conferring the ability to concurrently target vascular and neoplastic structures. […] However, its therapeutic effectiveness is fairly constra ...
Details of series [3]: method as in PMID 31480582. The settings on record: ref [19]; cited from earlier work.
Details of series [4]: method as in PMID 31480582. To be noted: ref [19]; cited from earlier work. The source holds these as a separate data set.
For series [5], the target named is T2, NK3R (Homo sapiens, UniProt P29371).
T2 construct: host or cells: HEK293-T
T2 sequence (P29371 1-465): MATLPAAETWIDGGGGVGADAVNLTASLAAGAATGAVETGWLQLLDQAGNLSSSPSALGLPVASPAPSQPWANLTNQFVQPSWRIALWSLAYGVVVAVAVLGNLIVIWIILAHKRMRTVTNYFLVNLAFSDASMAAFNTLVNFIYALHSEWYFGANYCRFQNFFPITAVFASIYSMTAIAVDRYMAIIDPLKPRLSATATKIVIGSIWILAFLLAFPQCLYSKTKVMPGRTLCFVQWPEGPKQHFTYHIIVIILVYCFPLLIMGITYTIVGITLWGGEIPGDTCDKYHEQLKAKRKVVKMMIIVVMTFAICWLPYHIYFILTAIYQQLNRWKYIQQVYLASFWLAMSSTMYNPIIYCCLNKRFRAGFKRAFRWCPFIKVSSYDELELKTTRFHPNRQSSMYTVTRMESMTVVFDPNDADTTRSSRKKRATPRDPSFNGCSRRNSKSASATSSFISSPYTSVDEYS
Description: IP accumulation assay, NK3R activation (HEK293-T cells). The settings on record: 1 µM SP; Supplemental Figure S3, % of cognate native ligand (NKB) response; single experiment (n=1); also ref [11]. The series is classed as cell-based.
Source text: as §1, §2, §3

For series [6], the system named is NK1R. To be noted: native tachykinins; ref [11],[13]; cited from earlier work.
The subject of series [7] is all three tachykinin receptors (NK1R, NK2R, NK3R). The settings on record: albeit with differing potencies; ref [11],[13]; cited from earlier work.
For the next series, the system named is MRGPRX2. To be noted: ref [14]; cited from earlier work. The source says:
Glioblastoma multiforme is one of the most common and most aggressive forms of central nervous system tumour and, despite therapeutic advances, it remains largely incurable. […] SP is a member of the tachykinin family of neuropeptides, of which the other classical members are neurokinin-A (NKA) and ...

Series [8] has as its target T2, NK3R. As to the kind of experiment: NK3R antagonism, IP accumulation assay. The series is classed as cell-based. To be noted: 1 µM compound, 30 min pre-incubation at 37 °C, then 30 nM NKB 1 h; Figure 4; n = 4 (talnetant: two experiments).
Source text: as §1
Modified human embryonic kidney cells (HEK293-T; American Tissue and Cell Culture Collection), which provide a ‘blank’ background (with little/no endogenous tachykinin receptor nor MRGPRX2 expression) and stably express large T-antigen for optimal expression of exogenous proteins, were utilised. Cells were cultured in a humidified atmosphere at 37 °C with 5% CO2 in Dulbecco’s Modified Eagle Medium containing GlutaMAX™ (DMEM) (Life Technologies, Carlsbad, CA, USA) supplemented with 10% foetal calf serum (FCS) (Life Technologies, Carlsbad, CA, USA). Cells were passaged regularly to maintain them at less than 80% confluence. […]

Series [9] has as its system NK3R. On the set-up: method as in PMID 9190866. To be noted: ref [49]; cited from earlier work. As to the method: For single-concentration analyses, cells were incubated with 1 µM [NK1R, NK2R, NK3R and empty vector) or 10 µM [MRGPRX2 and empty vector]

T1 sequence (P25103 whole entry): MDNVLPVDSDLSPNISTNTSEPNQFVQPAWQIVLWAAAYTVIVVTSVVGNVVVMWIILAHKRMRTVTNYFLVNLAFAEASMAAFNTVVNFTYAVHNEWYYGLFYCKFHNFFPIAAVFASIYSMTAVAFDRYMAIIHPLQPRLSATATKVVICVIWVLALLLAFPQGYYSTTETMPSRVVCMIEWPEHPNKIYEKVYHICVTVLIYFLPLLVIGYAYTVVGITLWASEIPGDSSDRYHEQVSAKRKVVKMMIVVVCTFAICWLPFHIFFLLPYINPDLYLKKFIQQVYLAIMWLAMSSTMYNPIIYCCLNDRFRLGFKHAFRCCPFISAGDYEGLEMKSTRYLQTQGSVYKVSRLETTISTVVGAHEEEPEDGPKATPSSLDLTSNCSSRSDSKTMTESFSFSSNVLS

What is called Emax is the maximal effect, on the per cent scale that the assay sets. Usually EC50 stands for the concentration at which the effect is half-maximal. Lower therefore signals an effect from little substance. `CC(C)C[C@H](NC(=O)CNC(=O)[C@H](Cc1cccs1)NC(=O)[C@H](Cc1ccccc1)NC(=O)[C@H](CCC(N)=O)NC(=O)[C@H](CCC(N)=O)NC(=O)[C@@H]1CCCN1C(=O)[C@H](CCCCN)NC(=O)[C@@H]1CCCN1C(=O)[C@H](CCCNC(=N)N)NC(=O)CN1CCN(CC(=O)O)CCN(CC(=O)O)CCN(CC(=O)O)CC1)C(=O)N[C@@H](CCS(C)(=O)=O)C(N)=O` [DOTA-[Thi^8,Met(O2)^11]SP, 1,4,7,10-tetraazacyclododecane-1,4,7,10-tetraacetic acid-[Thi^8,Met(O2)^11]-SP] showed an Emax at NK1R [1] (HEK-293T, Table 2, % of the maximal response elicited by SP (Figure 3)) of 89 ± 1%. Moreover, the EC50 on NK1R [1] (Table 2, comparison of SP with DOTA-[Thi8,Met(O2)11]SP) is 3.31 nM. For the same compound, the metabolic stability entry in [2] is reported as “metabolically stable”. In addition, the “lipophilicity compared to native SP” value in [3] is recorded as “increased lipophilicity”. For the same compound, in series [4], the “in vivo half-life compared to native SP” value was “increased lipophilicity and in vivo half-life”.
`CSCC[C@H](NC(=O)[C@H](CC(C)C)NC(=O)CNC(=O)[C@H](Cc1ccccc1)NC(=O)[C@H](Cc1ccccc1)NC(=O)[C@H](CCC(N)=O)NC(=O)[C@H](CCC(N)=O)NC(=O)[C@@H]1CCCN1C(=O)[C@H](CCCCN)NC(=O)[C@@H]1CCCN1C(=O)[C@@H](N)CCCNC(=N)N)C(N)=O` [SP, Substance P]: at NK3R [5], the “NK3R response to SP” value is listed as “able to elicit a response”. In the series with NK1R [6], the “affinity for NK1R” value was “highest affinity for NK1R”. Further, in series [7], the “agonism at all three tachykinin receptors” value was “full agonists”. Moreover, the “agonism at MRGPRX2” value in the series on MRGPRX2 was “low potency agonist”.
As for `CC[C@H](NC(=O)c1c(O)c(-c2ccccc2)nc2ccccc12)c1ccccc1` [talnetant, (S)-N-(1-phenylpropyl)-3-hydroxy-2-phenylquinoline-4-carboxamide], at NK3R [8], the “inhibition of NK3R activation” value is on record as “NKB-induced NK3R activation was completely abolished”. Besides, the NK3R antagonism entry in the series with NK3R [9] was “non-peptide antagonist of the NK3R”.
